Values of other authors as cited in US9180154B2, “Method of manufacturing magnoliidae compounds” (Arizona Health Consulting Group, LLC, priority 2009, dated 2015).

Assays:
[1] = system: D1-type and D2-type DA receptor; conditions: D1-type versus D2-type DA receptor
D1 receptors = biological target: T1, D1 receptors (Rattus norvegicus, UniProt P18901); conditions: rats with unilateral nigral lesion (DA receptor super sensitivity in striatum)
T1 construct: from tissue; host or cells: rats with unilateral nigral lesion (in vivo; striatum mentioned)
T1 sequence (P18901 whole entry): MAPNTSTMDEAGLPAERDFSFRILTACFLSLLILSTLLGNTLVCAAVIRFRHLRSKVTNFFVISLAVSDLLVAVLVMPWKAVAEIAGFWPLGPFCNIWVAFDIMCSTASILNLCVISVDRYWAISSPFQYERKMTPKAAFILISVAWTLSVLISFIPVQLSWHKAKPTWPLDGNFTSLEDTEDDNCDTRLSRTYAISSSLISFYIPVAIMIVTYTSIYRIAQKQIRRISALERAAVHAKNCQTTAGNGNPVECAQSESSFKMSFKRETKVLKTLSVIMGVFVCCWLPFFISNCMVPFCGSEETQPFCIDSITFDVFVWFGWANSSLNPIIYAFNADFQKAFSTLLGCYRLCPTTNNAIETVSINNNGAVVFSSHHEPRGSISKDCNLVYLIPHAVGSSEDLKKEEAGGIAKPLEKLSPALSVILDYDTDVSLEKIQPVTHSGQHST

D2 receptor = biological target: T2, D2 receptor (Rattus norvegicus, UniProt P61169)
T2 construct: from tissue; host or cells: normal rats (in vivo; tissue not specified)
T2 sequence (P61169 whole entry): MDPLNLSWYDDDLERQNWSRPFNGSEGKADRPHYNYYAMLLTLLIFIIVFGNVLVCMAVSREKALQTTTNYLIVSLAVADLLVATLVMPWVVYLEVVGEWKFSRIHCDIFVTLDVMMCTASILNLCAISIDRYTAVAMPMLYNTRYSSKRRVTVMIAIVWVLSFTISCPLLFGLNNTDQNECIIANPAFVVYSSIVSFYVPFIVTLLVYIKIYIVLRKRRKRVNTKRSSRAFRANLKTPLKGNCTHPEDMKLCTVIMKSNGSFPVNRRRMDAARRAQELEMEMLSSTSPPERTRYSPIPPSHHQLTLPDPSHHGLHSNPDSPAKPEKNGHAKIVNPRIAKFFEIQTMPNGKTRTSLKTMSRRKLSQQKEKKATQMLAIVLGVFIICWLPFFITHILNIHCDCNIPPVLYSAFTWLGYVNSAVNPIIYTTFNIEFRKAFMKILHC

| SMILES | effect on D1-type and D2-type DA receptor binding [1] | receptor action in lesioned rats (D1 receptors) | receptor action in normal rats (D2 receptor) |
| --- | --- | --- | --- |
| COc1ccc2c(c1OC)CN1CCc3cc4c(cc3C1C2)OCO4 (stereo not drawn) [THB, tetrahydroberberine] | equipotent | – | – |
| COc1cc2c(cc1O)[C@@H]1Cc3ccc(O)c(OC)c3CN1CC2 [l-SPD, l-Stepholidine] | – | acts on D1 receptors as an agonist | characteristics of D2 receptor antagonist |
